Results as given in publication PMC6576746, “Rational discovery of dual-indication multi-target PDE/Kinase inhibitor for precision anti-cancer therapy using structural systems pharmacology” (PLoS Computational Biology, 2019).

Legend:
Test in all cases: biochemical
Design in all cases: DiscoverX KinomeScan competition binding assay across human kinases; per cent of control at 10 and 100 uM
[1] = target: WNK4 (Homo sapiens, UniProt Q96J92); settings: competition binding, % of control; read-out: Percent Control (100 uM Levosimendan)
Summary of the method: (§1)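 Binding is expressed as %control, normalised between positive and negative control signals. The compound (levosimendan) was tested at 10 μM and 100 μM in the DiscoverX KinomeScan competition binding format against human kinases.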

[2] = target: T1, ABL1(Q252H)-nonphosphorylated (Homo sapiens, UniProt P00519, Q252H); settings: competition binding, % of control; read-out: Percent Control (100 uM Levosimendan)
T1 construct: nonphosphorylated
Summary of the method: as §1

[3] = target: MYO3B (Homo sapiens, UniProt Q8WXR4); settings: competition binding, % of control; read-out: Percent Control (100 uM Levosimendan)
Summary of the method: as §1

[4] = target: NEK11 (Homo sapiens, UniProt Q8NG66); settings: competition binding, % of control; read-out: Percent Control (100 uM Levosimendan)
Summary of the method: as §1

[5] = target: PRKG1 (Homo sapiens, UniProt Q13976); settings: competition binding, % of control; read-out: Percent Control (100 uM Levosimendan)
Summary of the method: as §1

[6] = target: T2, RPS6KA4(Kin.Dom.1-N-terminal) (Homo sapiens, UniProt O75676); settings: competition binding, % of control; read-out: Percent Control (100 uM Levosimendan)
T2 construct: Kin.Dom.1-N-terminal
Summary of the method: as §1

[7] = target: T3, VEGFR2 (Homo sapiens, UniProt P35968); settings: competition binding, % of control; read-out: Percent Control (100 uM Levosimendan)
T3 construct: gene KDR
Summary of the method: as §1

[8] = target: EGFR(L747-S752del, P753S) (Homo sapiens, UniProt P00533, DEL747-752/P753S); settings: competition binding, % of control; read-out: Percent Control (100 uM Levosimendan)
Summary of the method: as §1

[9] = target: RET(M918T) (Homo sapiens, UniProt P07949, M918T); settings: competition binding, % of control; read-out: Percent Control (100 uM Levosimendan)
Summary of the method: as §1

[10] = target: MYO3A (Homo sapiens, UniProt Q8NEV4); settings: competition binding, % of control; read-out: Percent Control (100 uM Levosimendan)
Summary of the method: as §1

[11] = target: BUB1 (Homo sapiens, UniProt O43683); settings: competition binding, % of control
Summary of the method: as §1

[12] = target: T4, GCN2(Kin.Dom.2,S808G) (Homo sapiens, UniProt Q9P2K8, S808G); settings: competition binding, % of control; read-out: Percent Control (100 uM Levosimendan)
T4 construct: gene EIF2AK4; Kin.Dom.2
Summary of the method: as §1

[13] = target: T5, JNK2 (Homo sapiens, UniProt P45984); settings: competition binding, % of control; read-out: Percent Control (100 uM Levosimendan)
T5 construct: gene MAPK9
Summary of the method: as §1

[14] = target: CAMK2B (Homo sapiens, UniProt Q13554); settings: competition binding, % of control; read-out: Percent Control (100 uM Levosimendan)
Summary of the method: as §1

[15] = target: T6, MKK7 (Homo sapiens, UniProt O14733); settings: competition binding, % of control; read-out: Percent Control (100 uM Levosimendan)
T6 construct: gene MAP2K7
Summary of the method: as §1

[16] = target: TLK1 (Homo sapiens, UniProt Q9UKI8); settings: competition binding, % of control; read-out: Percent Control (100 uM Levosimendan)
Summary of the method: as §1

[17] = target: HUNK (Homo sapiens, UniProt P57058); settings: competition binding, % of control; read-out: Percent Control (100 uM Levosimendan)
Summary of the method: as §1

[18] = target: VRK2 (Homo sapiens, UniProt Q86Y07); settings: competition binding, % of control; read-out: Percent Control (100 uM Levosimendan)
Summary of the method: as §1

Sequence of BUB1 (O43683 whole entry): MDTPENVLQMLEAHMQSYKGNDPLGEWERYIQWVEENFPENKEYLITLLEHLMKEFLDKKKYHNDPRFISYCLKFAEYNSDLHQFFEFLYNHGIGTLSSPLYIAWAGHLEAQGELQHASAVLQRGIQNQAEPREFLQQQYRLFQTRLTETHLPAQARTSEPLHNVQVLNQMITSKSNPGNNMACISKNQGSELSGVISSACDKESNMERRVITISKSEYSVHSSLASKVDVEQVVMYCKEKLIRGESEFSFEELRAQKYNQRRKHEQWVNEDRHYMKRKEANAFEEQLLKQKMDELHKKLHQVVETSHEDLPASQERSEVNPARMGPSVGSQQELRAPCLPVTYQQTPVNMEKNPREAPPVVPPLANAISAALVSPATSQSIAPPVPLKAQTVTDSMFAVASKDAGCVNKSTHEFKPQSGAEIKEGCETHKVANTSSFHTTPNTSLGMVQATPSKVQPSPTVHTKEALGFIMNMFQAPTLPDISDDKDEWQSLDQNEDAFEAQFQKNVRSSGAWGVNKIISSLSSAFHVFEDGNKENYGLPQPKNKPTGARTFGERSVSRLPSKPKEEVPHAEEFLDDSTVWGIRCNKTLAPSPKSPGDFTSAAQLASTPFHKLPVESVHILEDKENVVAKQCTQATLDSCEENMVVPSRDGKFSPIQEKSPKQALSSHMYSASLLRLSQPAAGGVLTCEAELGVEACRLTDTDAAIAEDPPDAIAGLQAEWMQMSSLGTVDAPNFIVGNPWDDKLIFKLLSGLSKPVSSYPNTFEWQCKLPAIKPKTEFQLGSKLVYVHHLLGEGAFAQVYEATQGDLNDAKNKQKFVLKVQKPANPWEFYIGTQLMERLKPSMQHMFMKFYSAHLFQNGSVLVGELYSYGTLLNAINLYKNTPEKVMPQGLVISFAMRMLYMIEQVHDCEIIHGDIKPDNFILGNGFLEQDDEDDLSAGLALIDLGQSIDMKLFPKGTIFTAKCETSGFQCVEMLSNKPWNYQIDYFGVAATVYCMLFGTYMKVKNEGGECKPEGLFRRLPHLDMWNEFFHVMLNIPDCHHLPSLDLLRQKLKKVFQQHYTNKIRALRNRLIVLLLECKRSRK
Sequence of RET(M918T) (P07949 whole entry M918T): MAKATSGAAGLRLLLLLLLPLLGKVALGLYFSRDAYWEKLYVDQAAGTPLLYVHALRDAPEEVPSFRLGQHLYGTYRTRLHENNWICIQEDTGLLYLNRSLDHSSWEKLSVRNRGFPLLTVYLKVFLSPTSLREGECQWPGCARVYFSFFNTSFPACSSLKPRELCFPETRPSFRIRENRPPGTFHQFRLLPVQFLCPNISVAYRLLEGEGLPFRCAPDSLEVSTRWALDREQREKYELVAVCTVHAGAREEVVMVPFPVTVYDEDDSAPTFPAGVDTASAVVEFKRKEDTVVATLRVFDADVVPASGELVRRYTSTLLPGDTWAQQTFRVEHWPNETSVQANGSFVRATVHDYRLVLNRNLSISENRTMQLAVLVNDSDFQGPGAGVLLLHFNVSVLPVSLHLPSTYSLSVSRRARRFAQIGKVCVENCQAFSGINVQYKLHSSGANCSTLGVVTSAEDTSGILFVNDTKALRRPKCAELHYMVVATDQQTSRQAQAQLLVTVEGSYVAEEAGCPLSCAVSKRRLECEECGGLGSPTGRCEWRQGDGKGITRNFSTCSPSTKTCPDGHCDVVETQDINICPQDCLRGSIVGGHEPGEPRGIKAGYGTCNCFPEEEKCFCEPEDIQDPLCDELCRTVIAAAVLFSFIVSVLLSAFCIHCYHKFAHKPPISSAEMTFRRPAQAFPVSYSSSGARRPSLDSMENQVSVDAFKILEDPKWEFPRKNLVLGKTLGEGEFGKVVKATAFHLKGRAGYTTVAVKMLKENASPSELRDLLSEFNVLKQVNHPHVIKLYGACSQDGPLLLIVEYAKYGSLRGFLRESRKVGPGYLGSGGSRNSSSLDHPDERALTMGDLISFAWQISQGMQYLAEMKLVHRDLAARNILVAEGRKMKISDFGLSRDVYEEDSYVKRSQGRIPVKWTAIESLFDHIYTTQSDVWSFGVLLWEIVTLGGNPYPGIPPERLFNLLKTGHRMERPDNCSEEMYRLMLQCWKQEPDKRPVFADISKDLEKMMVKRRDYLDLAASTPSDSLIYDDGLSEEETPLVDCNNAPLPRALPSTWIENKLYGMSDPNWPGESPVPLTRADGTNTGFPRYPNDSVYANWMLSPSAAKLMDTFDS
Sequence of MYO3B (Q8WXR4 whole entry): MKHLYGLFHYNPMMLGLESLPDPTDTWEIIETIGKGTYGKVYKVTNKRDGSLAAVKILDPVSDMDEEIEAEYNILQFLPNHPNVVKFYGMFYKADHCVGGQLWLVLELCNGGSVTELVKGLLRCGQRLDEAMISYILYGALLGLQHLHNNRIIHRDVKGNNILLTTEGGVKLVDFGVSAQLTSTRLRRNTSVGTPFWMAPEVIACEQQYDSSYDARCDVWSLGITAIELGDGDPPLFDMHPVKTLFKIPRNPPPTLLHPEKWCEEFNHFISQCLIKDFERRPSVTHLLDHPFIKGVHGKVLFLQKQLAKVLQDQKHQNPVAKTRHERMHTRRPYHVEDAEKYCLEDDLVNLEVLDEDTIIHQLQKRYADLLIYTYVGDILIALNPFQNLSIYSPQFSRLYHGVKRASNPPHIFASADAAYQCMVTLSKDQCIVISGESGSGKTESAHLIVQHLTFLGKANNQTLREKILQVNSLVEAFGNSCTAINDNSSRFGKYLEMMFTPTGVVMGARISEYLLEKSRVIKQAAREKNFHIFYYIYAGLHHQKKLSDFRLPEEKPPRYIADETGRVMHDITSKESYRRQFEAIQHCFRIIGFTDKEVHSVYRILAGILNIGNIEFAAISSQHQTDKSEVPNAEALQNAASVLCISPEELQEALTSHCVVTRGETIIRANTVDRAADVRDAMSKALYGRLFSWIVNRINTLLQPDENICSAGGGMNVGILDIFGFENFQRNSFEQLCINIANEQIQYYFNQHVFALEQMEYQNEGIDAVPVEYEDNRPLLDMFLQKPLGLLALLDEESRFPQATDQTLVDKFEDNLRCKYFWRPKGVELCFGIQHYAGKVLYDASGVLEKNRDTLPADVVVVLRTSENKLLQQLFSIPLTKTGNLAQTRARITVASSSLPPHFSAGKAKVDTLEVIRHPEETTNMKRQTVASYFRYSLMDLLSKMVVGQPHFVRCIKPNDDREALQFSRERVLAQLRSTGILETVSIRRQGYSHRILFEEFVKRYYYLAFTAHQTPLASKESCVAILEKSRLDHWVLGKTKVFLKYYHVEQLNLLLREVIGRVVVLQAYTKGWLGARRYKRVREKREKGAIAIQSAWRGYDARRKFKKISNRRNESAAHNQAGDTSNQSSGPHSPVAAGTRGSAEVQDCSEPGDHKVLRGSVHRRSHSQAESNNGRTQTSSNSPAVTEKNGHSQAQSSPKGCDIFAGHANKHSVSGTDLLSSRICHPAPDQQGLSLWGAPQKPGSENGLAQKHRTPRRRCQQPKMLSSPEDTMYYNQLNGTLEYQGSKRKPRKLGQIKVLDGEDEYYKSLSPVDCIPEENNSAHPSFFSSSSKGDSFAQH
Sequence of EGFR(L747-S752del, P753S) (P00533 with tags, fused parts or gaps DEL747-752/P753S): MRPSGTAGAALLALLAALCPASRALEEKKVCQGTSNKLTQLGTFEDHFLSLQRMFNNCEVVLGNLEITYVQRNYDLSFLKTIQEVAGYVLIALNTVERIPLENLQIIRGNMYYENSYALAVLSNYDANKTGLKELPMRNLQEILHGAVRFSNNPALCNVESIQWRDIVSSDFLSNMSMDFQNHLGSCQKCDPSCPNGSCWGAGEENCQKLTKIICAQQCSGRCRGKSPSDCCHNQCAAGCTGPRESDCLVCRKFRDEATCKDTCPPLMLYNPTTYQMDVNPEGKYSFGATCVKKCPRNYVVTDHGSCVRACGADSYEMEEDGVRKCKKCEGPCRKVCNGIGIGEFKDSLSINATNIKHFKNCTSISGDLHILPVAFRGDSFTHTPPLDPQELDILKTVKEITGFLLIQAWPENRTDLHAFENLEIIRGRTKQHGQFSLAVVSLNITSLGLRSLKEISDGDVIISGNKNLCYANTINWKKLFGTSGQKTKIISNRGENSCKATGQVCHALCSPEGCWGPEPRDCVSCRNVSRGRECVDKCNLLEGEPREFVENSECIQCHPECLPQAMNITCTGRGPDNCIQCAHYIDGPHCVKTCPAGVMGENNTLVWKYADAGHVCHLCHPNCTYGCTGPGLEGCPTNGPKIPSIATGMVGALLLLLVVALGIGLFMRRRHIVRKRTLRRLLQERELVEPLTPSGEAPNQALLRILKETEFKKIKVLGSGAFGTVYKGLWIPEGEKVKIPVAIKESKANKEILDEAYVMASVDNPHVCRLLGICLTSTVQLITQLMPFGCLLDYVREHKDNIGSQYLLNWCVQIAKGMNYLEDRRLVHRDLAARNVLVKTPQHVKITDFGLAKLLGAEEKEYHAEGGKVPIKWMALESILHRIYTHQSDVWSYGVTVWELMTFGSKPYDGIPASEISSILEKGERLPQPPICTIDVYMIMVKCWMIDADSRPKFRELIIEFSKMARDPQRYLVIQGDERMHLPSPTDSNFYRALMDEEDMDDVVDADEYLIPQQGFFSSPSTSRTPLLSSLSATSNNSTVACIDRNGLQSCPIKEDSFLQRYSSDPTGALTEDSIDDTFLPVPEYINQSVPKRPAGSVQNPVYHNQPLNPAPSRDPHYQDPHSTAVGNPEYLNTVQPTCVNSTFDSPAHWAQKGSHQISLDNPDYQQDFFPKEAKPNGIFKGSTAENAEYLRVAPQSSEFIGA

remaining binding at 100 µM [1]: 95% | remaining binding at 100 µM [2]: 61% | remaining binding at 100 µM [3]: 100% | remaining binding at 100 µM [4]: 100% | remaining binding at 100 µM [5]: 64% | remaining binding at 100 µM [6]: 53% | remaining binding at 100 µM [7]: 100% | remaining binding at 100 µM [8]: 91% | remaining binding at 100 µM [9]: 90% | remaining binding at 100 µM [10]: 97% | remaining binding at 10 µM ([11]; read-out: Percent Control (10 uM Levosimendan)): 94% | remaining binding at 100 µM ([11]; read-out: Percent Control (100 uM Levosimendan)): 53% | remaining binding at 100 µM [12]: 100% | remaining binding at 100 µM [13]: 100% | remaining binding at 100 µM [14]: 90% | remaining binding at 100 µM [15]: 100% | remaining binding at 100 µM [16]: 100% | remaining binding at 100 µM [17]: 100% | remaining binding at 100 µM [18]: 69%
SMILES: C[C@@H]1CC(=O)NN=C1c1ccc(NN=C(C#N)C#N)cc1 [levosimendan]
